Test results: ChEMBL document CHEMBL3603774, “Novel 5-functionalized-pyrazoles: Synthesis, characterization and pharmacological screening” (Bioorg Med Chem Lett, 2015)
Converted amounts (≈) assume the structure as drawn.

Tests used:
[1] = Inhibition of alpha-glucosidase (unknown origin) using p-nitrophenol glycoside as substrate after 30 mins by colorimetric analysis; set-up: species or system Homo sapiens
[2] = system: Aspergillus flavus; test: Antifungal activity against Aspergillus flavus MTCC 873 after 48 hrs by microdilution method; type: functional; details: MTCC 873, 48 h
[3] = system: Bacillus cereus; test: Antibacterial activity against Bacillus cereus MTCC 8372 after 24 hrs by microdilution method; type: functional; details: MTCC 8372, 24 h
[4] = system: Bacillus cereus; test: Antibacterial activity against Bacillus cereus MTCC 8372 at 100 ug/ml after 24 hrs by disc diffusion method; type: functional; details: MTCC 8372, 24 h, read-out: IZ
[5] = system: Staphylococcus aureus; test: Antibacterial activity against Staphylococcus aureus MTCC 96 assessed as concentration required to completely destroy test microorganisms after 24 hrs; type: functional; details: MTCC 96, 24 h
[6] = system: Staphylococcus aureus; test: Antibacterial activity against Staphylococcus aureus MTCC 96 at 50 ug/ml after 24 hrs by disc diffusion method; type: functional; details: MTCC 96, 24 h, read-out: IZ
[7] = system: Aspergillus niger; test: Antifungal activity against Aspergillus niger MTCC 281 assessed as concentration required to completely destroy test microorganisms after 24 hrs; type: functional; details: MTCC 281, 24 h
[8] = system: Klebsiella pneumoniae; test: Antibacterial activity against Klebsiella pneumoniae MTCC 3384 assessed as concentration required to completely destroy test microorganisms after 24 hrs; type: functional; details: MTCC 3384, 24 h
[9] = system: Escherichia coli; test: Antibacterial activity against Escherichia coli MTCC 724 assessed as concentration required to completely destroy test microorganisms after 24 hrs; type: functional; details: MTCC 724, 24 h
[10] = system: Klebsiella pneumoniae; test: Antibacterial activity against Klebsiella pneumoniae MTCC 3384 at 100 ug/ml after 24 hrs by disc diffusion method; type: functional; details: MTCC 3384, 24 h, read-out: IZ
[11] = system: Aspergillus flavus; test: Antifungal activity against Aspergillus flavus MTCC 873 assessed as concentration required to completely destroy test microorganisms after 24 hrs; type: functional; details: MTCC 873, 24 h
[12] = system: Aspergillus flavus; test: Antifungal activity against Aspergillus flavus MTCC 873 at 100 ug/ml after 24 hrs by disc diffusion method; type: functional; details: MTCC 873, 24 h, read-out: IZ
[13] = system: Staphylococcus aureus; test: Antibacterial activity against Staphylococcus aureus MTCC 96 after 24 hrs by microdilution method; type: functional; details: MTCC 96, 24 h
[14] = system: Staphylococcus aureus; test: Antibacterial activity against Staphylococcus aureus MTCC 96 at 100 ug/ml after 24 hrs by disc diffusion method; type: functional; details: MTCC 96, 24 h, read-out: IZ
[15] = system: Escherichia coli; test: Antibacterial activity against Escherichia coli MTCC 724 at 100 ug/ml after 24 hrs by disc diffusion method; type: functional; details: MTCC 724, 24 h, read-out: IZ
[16] = system: Escherichia coli; test: Antibacterial activity against Escherichia coli MTCC 724 at 50 ug/ml after 24 hrs by disc diffusion method; type: functional; details: MTCC 724, 24 h, read-out: IZ
[17] = system: Aspergillus flavus; test: Antifungal activity against Aspergillus flavus MTCC 873 at 50 ug/ml after 24 hrs by disc diffusion method; type: functional; details: MTCC 873, 24 h, read-out: IZ
[18] = system: Aspergillus niger; test: Antifungal activity against Aspergillus niger MTCC 281 at 50 ug/ml after 24 hrs by disc diffusion method; type: functional; details: MTCC 281, 24 h, read-out: IZ
[19] = system: Klebsiella pneumoniae; test: Antibacterial activity against Klebsiella pneumoniae MTCC 3384 at 50 ug/ml after 24 hrs by disc diffusion method; type: functional; details: MTCC 3384, 24 h, read-out: IZ
[20] = system: Escherichia coli; test: Antibacterial activity against Escherichia coli MTCC 724 after 24 hrs by microdilution method; type: functional; details: MTCC 724, 24 h
[21] = system: Klebsiella pneumoniae; test: Antibacterial activity against Klebsiella pneumoniae MTCC 3384 after 24 hrs by microdilution method; type: functional; details: MTCC 3384, 24 h
[22] = target: T1, Alpha amylase (Homo sapiens, UniProt P0DUB6); test: Inhibition of alpha-amylase (unknown origin) using starch as substrate after 30 mins by spectrophotometer analysis
T1 sequence (P0DUB6 whole entry): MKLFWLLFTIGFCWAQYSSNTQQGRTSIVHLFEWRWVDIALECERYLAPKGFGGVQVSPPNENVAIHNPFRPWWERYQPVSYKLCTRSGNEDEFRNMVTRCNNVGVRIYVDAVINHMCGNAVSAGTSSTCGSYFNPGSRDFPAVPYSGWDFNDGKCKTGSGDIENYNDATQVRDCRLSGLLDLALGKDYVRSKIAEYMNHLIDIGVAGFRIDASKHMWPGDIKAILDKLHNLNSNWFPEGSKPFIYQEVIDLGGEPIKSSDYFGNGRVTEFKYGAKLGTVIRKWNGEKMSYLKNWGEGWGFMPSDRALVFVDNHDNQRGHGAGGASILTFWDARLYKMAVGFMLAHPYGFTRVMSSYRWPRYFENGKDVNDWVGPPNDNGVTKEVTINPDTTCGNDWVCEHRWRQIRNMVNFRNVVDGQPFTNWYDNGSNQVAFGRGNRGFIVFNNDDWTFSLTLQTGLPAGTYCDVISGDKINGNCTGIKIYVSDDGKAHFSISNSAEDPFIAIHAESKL

[23] = system: Aspergillus niger; test: Antifungal activity against Aspergillus niger MTCC 281 after 48 hrs by microdilution method; type: functional; details: MTCC 281, 48 h
[24] = system: Aspergillus niger; test: Antifungal activity against Aspergillus niger MTCC 281 at 100 ug/ml after 24 hrs by disc diffusion method; type: functional; details: MTCC 281, 24 h, read-out: IZ
[25] = system: Bacillus cereus; test: Antibacterial activity against Bacillus cereus MTCC 8372 at 50 ug/ml after 24 hrs by disc diffusion method; type: functional; details: MTCC 8372, 24 h, read-out: IZ
[26] = system: Bacillus cereus; test: Antibacterial activity against Bacillus cereus MTCC 8372 assessed as concentration required to completely destroy test microorganisms after 24 hrs; type: functional; details: MTCC 8372, 24 h

Structure (SMILES) | IC50 [1] [µg/mL] | MIC [2] [µg/mL] | MIC [3] [µg/mL] | zone of inhibition at 100 µg/mL [4] [mm] | MBC [5] [µg/mL] | zone of inhibition at 50 µg/mL [6] [mm] | MFC [7] [µg/mL] | MBC [8] [µg/mL] | MBC [9] [µg/mL] | zone of inhibition at 100 µg/mL [10] [mm] | MFC [11] [µg/mL] | zone of inhibition at 100 µg/mL [12] [mm] | MIC [13] [µg/mL] | zone of inhibition at 100 µg/mL [14] [mm] | zone of inhibition at 100 µg/mL [15] [mm] | zone of inhibition at 50 µg/mL [16] [mm] | zone of inhibition at 50 µg/mL [17] [mm] | zone of inhibition at 50 µg/mL [18] [mm] | zone of inhibition at 50 µg/mL [19] [mm] | MIC [20] [µg/mL] | further results
CCOC(=O)c1c(-c2ccccc2)nn(-c2ccccc2)c1COc1ccc(C=O)cc1OC | 70 (≈ 153 µM) | 40 (≈ 87.6 µM) | 45 (≈ 98.6 µM) | 8 | 240 (≈ 526 µM) | 2 | 205 (≈ 449 µM) | 200 (≈ 438 µM) | 210 (≈ 460 µM) | 6 | 250 (≈ 548 µM) | 9 | 45 (≈ 98.6 µM) | 8 | 8 | 3 | 8 | 12 | 4 | 40 (≈ 87.6 µM) | MIC [21]: 45 µg/mL (≈ 98.6 µM); IC50 [22]: 60 µg/mL (≈ 131 µM); MIC [23]: 40 µg/mL (≈ 87.6 µM); zone of inhibition at 100 µg/mL [24]: 10 mm; zone of inhibition at 50 µg/mL [25]: 4 mm; MBC [26]: 230 µg/mL (≈ 504 µM)
CCOC(=O)c1c(-c2ccccc2)nn(-c2ccccc2)c1COCc1c(-c2ccc(F)cc2)nc(N(C)S(C)(=O)=O)nc1C(C)C | 25 (≈ 38 µM) | 55 (≈ 83.6 µM) | 15 (≈ 22.8 µM) | 20 | 190 (≈ 289 µM) | 6 | 280 (≈ 426 µM) | 240 (≈ 365 µM) | 280 (≈ 426 µM) | 10 | 300 (≈ 456 µM) | 6 | 40 (≈ 60.8 µM) | 19 | 10 | 3 | 12 | 10 | 8 | 35 (≈ 53.2 µM) | MIC [21]: 30 µg/mL (≈ 45.6 µM); IC50 [22]: 15 µg/mL (≈ 22.8 µM); MIC [23]: 50 µg/mL (≈ 76 µM); zone of inhibition at 100 µg/mL [24]: 8 mm; zone of inhibition at 50 µg/mL [25]: 8 mm; MBC [26]: 150 µg/mL (≈ 228 µM)
CCOC(=O)c1c(-c2ccccc2)nn(-c2ccccc2)c1COc1ccc(C=O)cc1 | 65 (≈ 152 µM) | 40 (≈ 93.8 µM) | 40 (≈ 93.8 µM) | 3 | 210 (≈ 492 µM) | 2 | 260 (≈ 610 µM) | 230 (≈ 539 µM) | 235 (≈ 551 µM) | 12 | 275 (≈ 645 µM) | 5 | 40 (≈ 93.8 µM) | 8 | 16 | 10 | 20 | 12 | 8 | 55 (≈ 129 µM) | MIC [21]: 55 µg/mL (≈ 129 µM); IC50 [22]: 60 µg/mL (≈ 141 µM); MIC [23]: 45 µg/mL (≈ 106 µM); zone of inhibition at 100 µg/mL [24]: 10 mm; zone of inhibition at 50 µg/mL [25]: 3 mm; MBC [26]: 210 µg/mL (≈ 492 µM)
CCOC(=O)c1c(-c2ccccc2)nn(-c2ccccc2)c1Cn1c(S)nc2ccc(OC(F)F)cc21 | 15 (≈ 28.8 µM) | 30 (≈ 57.6 µM) | 10 (≈ 19.2 µM) | 26 | 120 (≈ 231 µM) | 12 | 145 (≈ 279 µM) | 130 (≈ 250 µM) | 135 (≈ 259 µM) | 28 | 155 (≈ 298 µM) | 20 | 20 (≈ 38.4 µM) | 21 | 33 | 20 | 18 | 12 | 16 | 15 (≈ 28.8 µM) | MIC [21]: 15 µg/mL (≈ 28.8 µM); IC50 [22]: 10 µg/mL (≈ 19.2 µM); MIC [23]: 25 µg/mL (≈ 48 µM); zone of inhibition at 100 µg/mL [24]: 22 mm; zone of inhibition at 50 µg/mL [25]: 11 mm; MBC [26]: 130 µg/mL (≈ 250 µM)
